Among the test systems are SK-MEL-28 melanoma; IGROV1 ovarian; A549 NSCLC; UACC-257 melanoma; A498 renal; HCT-116 colon; OVCAR-5 ovarian; HOP-62 NSCLC; MALME-3M melanoma; 786-0 renal; SK-OV-3 ovarian; NCI-H460 lung.
What all share (test): inhibition of tumour cell growth, NCI panel, 48 h

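These data come from cells grown in 96-well plates and exposed to compound for 48 hours at five concentrations. GI50 marks 50% less growth. TGI marks complete inhibition of growth.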

As for `CCO[C@H]1C[C@@H](c2ccccc2)[C@]2(C)C[C@H](C(=O)OC)ON2O1`, the TGI in the test with SK-MEL-28 melanoma, with IGROV1 ovarian, in the test with A549 NSCLC, in the test on UACC-257 melanoma, with A498 renal and with HCT-116 colon was above 100 µM throughout. Besides, the TGI with OVCAR-5 ovarian, with HOP-62 NSCLC, in the test with MALME-3M melanoma and in the test on 786-0 renal was above 100 µM throughout.
For `O=C1CNc2cc(N3CCN(c4cccc(C(F)(F)F)c4)CC3)ccc2N1`, the TGI in the test on SK-MEL-28 melanoma, in the test with IGROV1 ovarian, in the test with A549 NSCLC, in the test on UACC-257 melanoma, in the test with A498 renal and with HCT-116 colon was above 100 µM throughout. Besides, the TGI was above 100 µM in the test on OVCAR-5 ovarian; above 100 µM in the test on HOP-62 NSCLC; 69.9 µM with MALME-3M melanoma; above 100 µM with SK-OV-3 ovarian; above 100 µM in the test with 786-0 renal; above 100 µM with NCI-H460 lung. The GI50 in the test on A498 renal is 24.7 µM.
As to `CCC(/C=C/c1ccccc1)=N\NC(=S)N/N=C(/C=C/c1ccccc1)CC`, the TGI with SK-MEL-28 melanoma was above 100 µM; with IGROV1 ovarian, above 100 µM; with A549 NSCLC it was above 100 µM; with UACC-257 melanoma, above 100 µM; in the test on A498 renal it was 59.8 µM; in the test with HCT-116 colon, above 100 µM. Moreover, the TGI in the test on HOP-62 NSCLC, with MALME-3M melanoma, in the test with SK-OV-3 ovarian, in the test with 786-0 renal and in the test on NCI-H460 lung was above 100 µM throughout.
For `COc1ccc(CN=C2Nc3ccncc3S(=O)(=O)N2c2ccccc2)cc1`, the TGI was 87.6 µM in the test on SK-MEL-28 melanoma; above 100 µM in the test with IGROV1 ovarian; above 100 µM with A549 NSCLC; above 100 µM in the test with UACC-257 melanoma; above 100 µM in the test with A498 renal; above 100 µM in the test on HCT-116 colon. For the same molecule, the TGI in the test on OVCAR-5 ovarian, in the test with HOP-62 NSCLC, with MALME-3M melanoma, with SK-OV-3 ovarian, with 786-0 renal and in the test on NCI-H460 lung was above 100 µM each time.
For `COc1ccc(C2c3cc4c(cc3OC(N3CCOCC3)C2C)OCO4)c(OC)c1` (stereo unspecified), the TGI in the test on SK-MEL-28 melanoma is 29.8 µM; in the test on IGROV1 ovarian, above 100 µM; in the test with A549 NSCLC, 58 µM; in the test with UACC-257 melanoma it was 85.1 µM; in the test on A498 renal, 15 µM; with HCT-116 colon, 15.8 µM. Besides, the TGI came to 73.9 µM in the test with OVCAR-5 ovarian; 31.5 µM in the test on HOP-62 NSCLC; 36.6 µM in the test with MALME-3M melanoma; 52.6 µM with SK-OV-3 ovarian; 41.1 µM with 786-0 renal; 24.4 µM with NCI-H460 lung.
Take `Cc1ccc(N2C(=O)CC(=O)N(NC(=O)C(C)Oc3ccccc3C)C2=S)cc1` (stereo unspecified): the TGI in the test with SK-MEL-28 melanoma, in the test on IGROV1 ovarian, in the test on A549 NSCLC, in the test on UACC-257 melanoma, in the test with A498 renal and with HCT-116 colon was above 100 µM each time. Also, the TGI in the test on OVCAR-5 ovarian, in the test with HOP-62 NSCLC, in the test on MALME-3M melanoma, in the test with SK-OV-3 ovarian, with 786-0 renal and in the test with NCI-H460 lung was above 100 µM in each case.
Regarding `CC1(C)OC2CN(C(=O)OCc3ccccc3)C(CO)C2O1` (stereo unspecified), the TGI with SK-MEL-28 melanoma, with IGROV1 ovarian, with A549 NSCLC, with UACC-257 melanoma, in the test with A498 renal and in the test with HCT-116 colon was above 100 µM in each case. For the same molecule, the TGI in the test on OVCAR-5 ovarian, in the test with HOP-62 NSCLC, in the test with MALME-3M melanoma, in the test with SK-OV-3 ovarian, in the test on 786-0 renal and in the test on NCI-H460 lung was above 100 µM in each case.
Turning to `CC1C=C(NCC2(CO)CCC2)NC(N)=N1` (stereo unspecified), the TGI with SK-MEL-28 melanoma, in the test on IGROV1 ovarian, with A549 NSCLC, in the test with UACC-257 melanoma, with A498 renal and with HCT-116 colon was above 100 µM in each case. Also, the TGI with OVCAR-5 ovarian, with HOP-62 NSCLC, in the test on MALME-3M melanoma, in the test with SK-OV-3 ovarian, with 786-0 renal and in the test with NCI-H460 lung was above 100 µM throughout.
For the molecule `CSCCCNC(=O)c1csc([C@@H](CSC)NC(=O)CCNC(=O)[C@@H](NC(=O)OCC(Br)(Br)Br)C(C)O)n1` (stereo partly specified), the TGI in the test with SK-MEL-28 melanoma, with IGROV1 ovarian, in the test with A549 NSCLC, with UACC-257 melanoma, in the test on A498 renal and in the test on HCT-116 colon was above 100 µM throughout. The TGI in the test on OVCAR-5 ovarian, in the test with HOP-62 NSCLC, with MALME-3M melanoma, in the test with SK-OV-3 ovarian, in the test on 786-0 renal and in the test on NCI-H460 lung was above 100 µM in each case.
As for `Cn1c2c(c3ccccc31)CC(=O)N1CCCCC1C21OCCO1` (stereo unspecified), the TGI in the test on SK-MEL-28 melanoma, in the test with IGROV1 ovarian, in the test with A549 NSCLC, in the test with UACC-257 melanoma, in the test on A498 renal and with HCT-116 colon was above 100 µM in each case. For the same molecule, the TGI in the test on OVCAR-5 ovarian, with HOP-62 NSCLC, in the test on MALME-3M melanoma, with SK-OV-3 ovarian, with 786-0 renal and with NCI-H460 lung was above 100 µM in each case.
In the case of `CO/N=C1/C(n2[nH]c(=O)n(-c3ccccc3)c2=O)C2C=CC1n1c(=O)n(-c3ccccc3)c(=O)n12` (stereo unspecified), the TGI in the test with SK-MEL-28 melanoma, with IGROV1 ovarian, in the test with A549 NSCLC, in the test with UACC-257 melanoma, in the test on A498 renal and with HCT-116 colon was above 100 µM in each case. In addition, the TGI in the test on OVCAR-5 ovarian, in the test with MALME-3M melanoma, in the test on SK-OV-3 ovarian, with 786-0 renal and with NCI-H460 lung was above 100 µM in each case.
For `CCOC(=O)C1(Cc2ccccc2)CCN(C(=O)c2ccccc2)C2C1C2(Cl)Cl` (stereo unspecified), the TGI is 51.6 µM with SK-MEL-28 melanoma; above 100 µM in the test with IGROV1 ovarian; above 100 µM in the test with A549 NSCLC; 36.3 µM with UACC-257 melanoma; 40 µM with A498 renal; 30 µM in the test on HCT-116 colon. Also, the TGI in the test on OVCAR-5 ovarian is 98.4 µM; in the test on HOP-62 NSCLC it was 87.2 µM; in the test on MALME-3M melanoma, 51.5 µM; with SK-OV-3 ovarian, above 100 µM; in the test with 786-0 renal, 44.2 µM; with NCI-H460 lung, 35.9 µM.

Values taken from PubChem BioAssay (NCI).
